From paper PMC5053523, “In Vitro Antibacterial Activity of Rhodanine Derivatives against Pathogenic Clinical Isolates” (PLoS ONE, 2016)
≈ marks a conversion by molar mass, not a printed value. Where two headings read alike, the source gives them in different places.

How the values were obtained:
[1] = test system: Salmonella Typhimurium; test: MIC with/without sub-MIC colistin, Salmonella Typhimurium; assay type: cell-based
Outline: (§1)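 Sub-MIC colistin or PMBN added to broth MIC tests of rhodanines and reference antibiotics against Gram-negative strains; AcrAB efflux-deficient E. coli SM1411ΔacrAB also tested.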

[2] = test system: Escherichia coli O157:H7; test: MIC with/without sub-MIC colistin, Escherichia coli O157:H7; assay type: cell-based
Outline: as §1

[3] = test system: Bacillus anthracis; test: microbe, parasite or virus in culture; assay type: cell-based
[4] = test system: Acinetobacter baumannii; test: MIC with/without sub-MIC colistin, Acinetobacter baumannii; assay type: cell-based
Outline: as §1

[5] = test system: Mycobacterium smegmatis; test: Broth microdilution MIC/MBC, Mycobacterium smegmatis; assay type: cell-based; conditions: Mycolicibacterium smegmatis, ATCC14468, M. Smegmatis ATCC 14468
[6] = test system: Escherichia coli Δ acrAB; test: MIC against E. coli 1411 and AcrAB efflux pump deficient E. coli SM1411Δ acrAB; assay type: cell-based
Outline: as §1

[7] = test system: Escherichia coli O157:H7; test: MIC with/without PMBN, Escherichia coli O157:H7; assay type: cell-based
Outline: as §1

[8] = test system: Bacillus Strains; test: Broth microdilution MIC50/MIC90 and MIC range, Bacillus strains panel; assay type: cell-based, Bacillus spp.; conditions: 10 Bacillus strains
Source text: The broth microdilution technique was used, followed by subculturing on agar plates that were rhodanine—free. […] The MICs reported represent the lowest concentration of each compound necessary to inhibit bacterial growth and the MBCs represent the lowest concentration required to reduce the initial bacterial inoculum by ≥ 99.9%.

[9] = test system: MRSA USA300; test: MIC against MRSA USA300 with and without 4% human serum albumin; assay type: cell-based, Staphylococcus aureus; conditions: Staphylococcus aureus, read-out: MIC against MRSA USA300
Outline: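 MIC measured in tryptic soy broth spiked with 4% HSA and without it, using CLSI broth microdilution on MRSA USA300. Value reported is the lowest concentration preventing bacterial growth.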

[10] = test system: B. cereus; test: Broth microdilution MIC/MBC, B. cereus; assay type: cell-based; conditions: Bacillus cereus; for MBC: read-out: MBC; for MIC: read-out: MIC
Source text: The broth microdilution technique was used, followed by subculturing on agar plates that were rhodanine—free.

[11] = test system: Candida albicans; test: MIC against Candida albicans; assay type: cell-based; conditions: table prints none, read-out: MIC
[12] = test system: Acinetobacter baumannii; test: Broth microdilution MIC, Acinetobacter baumannii; assay type: cell-based
[13] = test system: Klebsiella pneumoniae; test: MIC with/without PMBN, Klebsiella pneumoniae; assay type: cell-based
Outline: as §1

[14] = test system: vancomycin resistant enterococci (VRE); test: Broth microdilution MIC50/MIC90, VRE panel; assay type: cell-based; conditions: Enterococcus, 10 VRE strains
[15] = NRS201, B. cereus NRS 201 NR-2488

O=C(O)[C@H](Cc1ccccc1)N1C(=O)/C(=C/c2cccc(Cc3ccc(Cl)c(Cl)c3)c2)SC1=S [Rh 3]
MIC ([1]; Salmonella Typhimurium ATCC 700720, colistin (+) […], read-out: MIC): >64 µM | MIC ([1]; Salmonella enterica, ATCC 700720 / TYPHIMURIUM): > 128 µM | MIC ([2]; Escherichia coli O157:H7 ATCC 35150, colistin (+) […], read-out: MIC): >64 µM | MIC ([2]; Escherichia coli O157:H7 ATCC 700728, colistin (+) […], read-out: MIC): >64 µM | MIC ([2]; Escherichia coli, ATCC35150): > 128 µM | MIC ([2]; Escherichia coli, ATCC700728): > 128 µM | MBC ([3]; Bacillus anthracis AMES35): 2 µM (≈ 1.06 µg/mL) | MIC ([3]; Bacillus anthracis AMES35): 2 µM (≈ 1.06 µg/mL) | MBC ([3]; Bacillus anthracis UM23): 2 µM (≈ 1.06 µg/mL) | MIC ([3]; Bacillus anthracis UM23): 2 µM (≈ 1.06 µg/mL) | MBC ([3]; Bacillus anthracis Weybridge): 2 µM (≈ 1.06 µg/mL) | MIC ([3]; Bacillus anthracis Weybridge): 2 µM (≈ 1.06 µg/mL) | MIC ([4]; Acinetobacter baumannii ATCC BAA747, colistin (+) […], read-out: MIC): >64 µM | MIC ([4]; Acinetobacter baumannii ATCC BAA19606, colistin (+) […], read-out: MIC): >64 µM | MIC ([4]; Acinetobacter baumannii, ATCCBAA747): > 128 µM | MIC ([4]; Acinetobacter baumannii, ATCCBAA19606): > 128 µM | MBC ([5]; read-out: MBC): 8 µM (≈ 4.23 µg/mL) | MIC ([5]; read-out: MIC): 4 µM (≈ 2.11 µg/mL) | MIC ([6]; E.coli 1411): > 64 µM | MIC ([6]; E.coli 1411 SM (Δ acrAB, AcrAB efflux pump deficient)): > 64 µM | MIC ([7]; Escherichia coli O157:H7 ATCC 35150, PMBN (+) 4 μg/mL, read-out: MIC): 8 µM (≈ 4.23 µg/mL) | MIC ([7]; Escherichia coli O157:H7 ATCC 700728, PMBN (+) 4 μg/mL, read-out: MIC): >64 µM | MIC ([7]; Escherichia coli, ATCC35150): > 256 µM | MIC ([7]; Escherichia coli, ATCC700728): > 128 µM | MIC50 [8]: 4 µM (≈ 2.11 µg/mL) | MIC90 [8]: 4 µM (≈ 2.11 µg/mL) | MIC ([9]; 24 h, Media TSB + 4% HSA): > 64 µM | MIC ([9]; Media TSB): 8 µM (≈ 4.23 µg/mL) | MBC ([10]; B. cereus BAG1O-2 NR-28582): 4 µM (≈ 2.11 µg/mL) | MIC ([10]; B. cereus BAG1O-2 NR-28582): 4 µM (≈ 2.11 µg/mL) | MBC ([10]; B. cereus BAG1X1-1 NR-28575): 2 µM (≈ 1.06 µg/mL) | MIC ([10]; B. cereus BAG1X1-1 NR-28575): 2 µM (≈ 1.06 µg/mL) | MBC ([10]; B. cereus BAG1X2-1 NR-28578): 4 µM (≈ 2.11 µg/mL) | MIC ([10]; B. cereus BAG1X2-1 NR-28578): 4 µM (≈ 2.11 µg/mL) | MBC ([10]; B. cereus G9241 NR-9564): 4 µM (≈ 2.11 µg/mL) | MIC ([10]; B. cereus G9241 NR-9564): 4 µM (≈ 2.11 µg/mL) | MBC ([10]; B. cereus VD014 NR-22141): 4 µM (≈ 2.11 µg/mL) | MIC ([10]; B. cereus VD014 NR-22141): 4 µM (≈ 2.11 µg/mL) | MBC ([10]; B. cereus VD115 NR-22148): 4 µM (≈ 2.11 µg/mL) | MIC ([10]; B. cereus VD115 NR-22148): 4 µM (≈ 2.11 µg/mL) | MBC ([10]; B. cereus VD148 NR-22150): 8 µM (≈ 4.23 µg/mL) | MIC ([10]; B. cereus VD148 NR-22150): 8 µM (≈ 4.23 µg/mL) | MBC [10, 15]: 4 µM (≈ 2.11 µg/mL) | MIC [10, 15]: 4 µM (≈ 2.11 µg/mL) | MIC ([11]; ATCC10231, C. albicans ATCC 10231, unit from abstract): > 64 µM | MIC ([11]; C. albicans NR 29434, unit from abstract): > 64 µM | MIC ([11]; C. albicans NR 29435, unit from abstract): > 64 µM | MIC ([11]; C. albicans NR29437, unit from abstract): > 64 µM | MIC ([11]; C. albicans NR29438, unit from abstract): > 64 µM | MIC ([11]; C. albicans NR 29446, unit from abstract): 64 µM (≈ 33.8 µg/mL) | MIC ([11]; C. albicans NR 29448, unit from abstract): > 64 µM | MIC ([11]; C. albicans NR 29449, unit from abstract): > 64 µM | MIC ([11]; C. albicans NR 29453, unit from abstract): > 64 µM | MIC ([11]; C. albicans NR 294436, unit from abstract): > 64 µM | MIC ([12]; ATCC13345): > 128 µM | MIC ([12]; ATCC17786): > 128 µM | MIC ([13]; Klebsiella pneumoniae ATCC BAA 1706, PMBN (+) 4 μg/mL): >64 µM | MIC ([13]; Klebsiella pneumoniae ATCC BAA 2146, PMBN (+) 4 μg/mL): >64 µM | MIC ([13]; Klebsiella pneumoniae, BAA1706): > 128 µM | MIC ([13]; Klebsiella pneumoniae, BAA2146): > 128 µM | MIC90 ([14]; VRE, read-out: MIC 90): 8 µM (≈ 4.23 µg/mL) | MIC50 ([14]; read-out: MIC 50): 4 µM (≈ 2.11 µg/mL)
